Test results: patent US9156829B2, “Cycloalkyl and heterocycloalkyl compounds as orexin receptor antagonists” (Takeda Pharmaceutical Company Limited, priority 2014, dated 2015)

Tests used:
human orexin receptor 1 = human orexin receptor 1 (Homo sapiens (Human), UniProt O43613); experiment: Orexin antagonist activity, intracellular calcium FLIPR assay, RBL-2H3 cells expressing human orexin receptor 1; type: cell-based; conditions: RBL-2H3 cells stably expressing human orexin receptor 1; orexin-A at approx. 80% maximal response; compound added 15 minutes before; read-out: Human Orexin1R IC50
Chain of human orexin receptor 1 (O43613 whole entry): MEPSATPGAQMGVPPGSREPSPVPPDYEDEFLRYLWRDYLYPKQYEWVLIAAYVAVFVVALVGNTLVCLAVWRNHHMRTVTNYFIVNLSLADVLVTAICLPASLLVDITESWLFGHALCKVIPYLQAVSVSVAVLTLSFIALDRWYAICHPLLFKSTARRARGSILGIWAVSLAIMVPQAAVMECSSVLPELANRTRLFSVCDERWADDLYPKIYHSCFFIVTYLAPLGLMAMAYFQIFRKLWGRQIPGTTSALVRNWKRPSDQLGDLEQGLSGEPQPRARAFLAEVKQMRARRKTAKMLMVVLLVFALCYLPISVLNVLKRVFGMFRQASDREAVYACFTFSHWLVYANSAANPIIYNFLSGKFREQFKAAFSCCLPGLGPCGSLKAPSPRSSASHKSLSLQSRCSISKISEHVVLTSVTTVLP

human orexin receptor 2 = human orexin receptor 2 (Homo sapiens (Human), UniProt O43614); experiment: Orexin antagonist activity, intracellular calcium FLIPR assay, RBL-2H3 cells expressing human orexin receptor 2; type: cell-based; conditions: RBL-2H3 cells stably expressing human orexin receptor 2; orexin-A at approx. 80% maximal response; compound added 15 minutes before; read-out: Human Orexin2R IC50
Chain of human orexin receptor 2 (O43614 whole entry): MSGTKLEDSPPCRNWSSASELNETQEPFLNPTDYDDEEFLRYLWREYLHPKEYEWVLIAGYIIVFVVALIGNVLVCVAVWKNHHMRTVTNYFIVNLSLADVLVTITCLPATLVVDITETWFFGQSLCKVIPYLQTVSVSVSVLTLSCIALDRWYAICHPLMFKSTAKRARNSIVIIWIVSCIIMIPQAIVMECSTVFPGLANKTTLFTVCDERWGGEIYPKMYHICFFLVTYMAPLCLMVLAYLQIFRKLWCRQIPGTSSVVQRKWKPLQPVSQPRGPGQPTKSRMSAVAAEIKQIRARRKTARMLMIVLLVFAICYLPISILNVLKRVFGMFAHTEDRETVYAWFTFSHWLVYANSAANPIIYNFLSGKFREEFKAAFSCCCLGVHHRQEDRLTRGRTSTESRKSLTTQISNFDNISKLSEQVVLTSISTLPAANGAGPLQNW

| Structure (SMILES) | IC50 (human orexin receptor 1) | IC50 (human orexin receptor 2) |
| --- | --- | --- |
| Cc1nnc(-c2ccccc2C(=O)N[C@H]2CCC[C@]2(C)Nc2cnc(C(F)(F)F)cn2)o1 [Example 160, 2-(5-Methyl-1,3,4-oxadiazol-2-yl)-N-[(1S,2S)-2-methyl-2-{[5-(trifluoromethyl)pyrazin-2-yl]amino}cyclopentyl]benzamide] | 29 nM | > 10 µM |
| Cc1ccc(-n2nccn2)c(C(=O)N[C@H]2CCC[C@@H]2Nc2ncc(C(F)(F)F)cn2)c1 [Example 3, 5-Methyl-2-(2H-1,2,3-triazol-2-yl)-N-[(1S,2S)-2-{[5-(trifluoromethyl)pyrimidin-2-yl]amino}cyclopentyl]benzamide] | 58 nM | > 10 µM |
| C[C@]1(Nc2cnc(C(F)(F)F)cn2)CCC[C@@H]1NC(=O)c1ncccc1-n1nccn1 [Example 77, N-[(1S,2S)-2-Methyl-2-{[5-(trifluoromethyl)pyrazin-2-yl]amino}cyclopentyl]-3-(2H-1,2,3-triazol-2-yl)pyridine-2-carboxamide] | 12 nM | > 10 µM |
| O=C(N[C@H]1CCC[C@@H]1Nc1cnc(C(F)(F)F)cn1)c1ncccc1OC(F)(F)F [Example 58, 3-(Trifluoromethoxy)-N-[(1S,2S)-2-{[5-(trifluoromethyl)pyrazin-2-yl]amino}cyclopentyl]pyridine-2-carboxamide] | 934 nM | > 10 µM |
| O=C(N[C@H]1CCC[C@@H]1Nc1ccc(OC(F)(F)F)cn1)c1ccccc1-n1nccn1 [Example 115, 2-(2H-1,2,3-Triazol-2-yl)-N-[(1S,2S)-2-{[5-(trifluoromethoxy)pyridin-2-yl]amino}cyclopentyl]benzamide] | 175 nM | > 10 µM |
| O=C(N[C@H]1CCC[C@@H]1Nc1ccc(C(F)(F)F)cn1)c1cc(F)ccc1-c1ncccn1 [Example 14, 5-Fluoro-2-(pyrimidin-2-yl)-N-[(1S,2S)-2-{[5-(trifluoromethyl)pyridin-2-yl]amino}cyclopentyl]benzamide] | 89 nM | > 10 µM |
| O=C(NC1CC(F)(F)CC1Nc1ccc(C(F)(F)F)cn1)c1ccccc1-n1nccn1 (single isomer, unassigned) [Example 128, N-(4,4-Difluoro-2-{[5-(trifluoromethyl)pyridin-2-yl]amino}cyclopentyl)-2-(2H-1,2,3-triazol-2-yl)benzamide] | 33 nM | > 10 µM |
| C[C@]1(Nc2cnc(C(F)(F)F)cn2)CCC[C@@H]1NC(=O)c1ncccc1OC(F)(F)F [Example 90, N-[(1S,2S)-2-Methyl-2-{[5-(trifluoromethyl)pyrazin-2-yl]amino}cyclopentyl]-3-(trifluoromethoxy)pyridine-2-carboxamide] | 68 nM | > 10 µM |
| O=C(N[C@H]1CCC[C@@H]1Nc1cnc(C(F)(F)F)cn1)c1ccccc1-n1ccnn1 [Example 35, 2-(1H-1,2,3-Triazol-1-yl)-N-[(1S,2S)-2-{[5-(trifluoromethyl)pyrazin-2-yl]amino}cyclopentyl]benzamide] | 693 nM | > 10 µM |
| C[C@]1(Nc2cnc(C(F)(F)F)cn2)CCC[C@@H]1NC(=O)c1cc(Cl)ccc1-n1nccn1 [Example 92, 5-Chloro-N-[(1S,2S)-2-methyl-2-{[5-(trifluoromethyl)pyrazin-2-yl]amino}cyclopentyl]-2-(2H-1,2,3-triazol-2-yl)benzamide] | 8 nM | 5.57 µM |
| O=C(N[C@H]1CC(F)(F)C[C@@H]1Nc1ccc(OC(F)F)cn1)c1ccccc1-n1nccn1 [Example 157, N-[(1S,2S)-2-{[5-(Difluoromethoxy)pyridin-2-yl]amino}-4,4-difluorocyclopentyl]-2-(2H-1,2,3-triazol-2-yl)benzamide] | 236 nM | > 10 µM |
| CC(C)c1cnc(N[C@H]2CCC[C@@H]2NC(=O)c2ccccc2-n2nccn2)cn1 [Example 113, N-[(1S,2S)-2-{[5-(Propan-2-yl)pyrazin-2-yl]amino}cyclopentyl]-2-(2H-1,2,3-triazol-2-yl)benzamide] | 67 nM | > 10 µM |
| O=C(N[C@H]1CCC[C@@H]1Nc1cnc(C(F)(F)F)cn1)c1c(F)cccc1F [Example 33, 2,6-Difluoro-N-[(1S,2S)-2-{[5-(trifluoromethyl)pyrazin-2-yl]amino}cyclopentyl]benzamide] | 890 nM | > 10 µM |
| O=C(N[C@H]1CCC[C@@H]1Nc1ncc(C(F)(F)F)nc1C1CC1)c1ccccc1-n1nccn1 [Example 109, N-[(1S,2S)-2-{[3-Cyclopropyl-5-(trifluoromethyl)pyrazin-2-yl]amino}cyclopentyl]-2-(2H-1,2,3-triazol-2-yl)benzamide] | 21 nM | > 10 µM |
| Cc1noc(-c2ccccc2C(=O)N[C@H]2CCC[C@@H]2Nc2ncc(C(F)(F)F)cc2F)n1 [Example 140, N-[(1S,2S)-2-{[3-Fluoro-5-(trifluoromethyl)pyridin-2-yl]amino}cyclopentyl]-2-(3-methyl-1,2,4-oxadiazol-5-yl)benzamide] | 35 nM | > 10 µM |
| COc1cc(Br)cnc1N[C@H]1CCC[C@@H]1NC(=O)c1ccccc1-n1nccn1 [Example 119, N-[(1S,2S)-2-[(5-Bromo-3-methoxypyridin-2-yl)amino]cyclopentyl]-2-(2H-1,2,3-triazol-2-yl)benzamide] | 22 nM | 7.8 µM |

| Structure (SMILES) | IC50 (human orexin receptor 1) | IC50 (human orexin receptor 2) |
| --- | --- | --- |
| CC1(Nc2ccc(C(F)(F)F)cn2)CCCC1NC(=O)c1ccccc1-n1nccn1 (centres unmarked) [Example 95, N-(2-Methyl-2-{[5-(trifluoromethyl)pyridin-2-yl]amino}cyclopentyl)-2-(2H-1,2,3-triazol-2-yl)benzamide] | 19 nM | 1.07 µM |
| CCc1nc(C(F)(F)F)cnc1N[C@H]1CCC[C@@H]1NC(=O)c1cc(F)ccc1-c1ncccn1 [Example 158, N-[(1S,2S)-2-{[3-Ethyl-5-(trifluoromethyl)pyrazin-2-yl]amino}cyclopentyl]-5-fluoro-2-(pyrimidin-2-yl)benzamide] | 5 nM | > 10 µM |
| O=C(N[C@H]1CCC[C@@H]1Nc1cnc(C(F)(F)F)cn1)c1cc(Cl)ccc1-n1nccn1 [Example 52, 5-Chloro-2-(2H-1,2,3-triazol-2-yl)-N-[(1S,2S)-2-{[5-(trifluoromethyl)pyrazin-2-yl]amino}cyclopentyl]benzamide] | 69 nM | > 10 µM |
| CCc1nc(C(F)(F)F)cnc1N[C@H]1CCC[C@@H]1NC(=O)c1ccccc1-c1ncccn1 [Example 151, N-[(1S,2S)-2-{[3-Ethyl-5-(trifluoromethyl)pyrazin-2-yl]amino}cyclopentyl]-2-(pyrimidin-2-yl)benzamide] | 29 nM | > 10 µM |
| COc1cccc(OC)c1C(=O)N[C@H]1CCC[C@@H]1Nc1ncc(C(F)(F)F)cn1 [Example 2, 2,6-Dimethoxy-N-[(1S,2S)-2-{[5-(trifluoromethyl)pyrimidin-2-yl]amino}cyclopentyl]benzamide] | 870 nM | > 10 µM |
| O=C(NC1CCCC1Cc1cc(C(F)(F)F)ccn1)c1ccccc1-n1nccn1 (single isomer, unassigned) [Example 23, 2-(2H-1,2,3-Triazol-2-yl)-N-(2-{[4-(trifluoromethyl)pyridin-2-yl]methyl}cyclopentyl)benzamide] | 792 nM | 3.8 µM |
| C[C@]1(Nc2cnc(C(F)(F)F)cn2)CCC[C@@H]1NC(=O)c1c(F)cccc1F [Example 88, 2,6-Difluoro-N-[(1S,2S)-2-methyl-2-{[5-(trifluoromethyl)pyrazin-2-yl]amino}cyclopentyl]benzamide] | 166 nM | > 10 µM |
| O=C(N[C@H]1CCC[C@@H]1Nc1ccc(C(F)(F)F)cn1)c1c(F)cccc1-n1nccn1 [Example 102, 2-Fluoro-6-(2H-1,2,3-triazol-2-yl)-N-[(1S,2S)-2-{[5-(trifluoromethyl)pyridin-2-yl]amino}cyclopentyl]benzamide] | 46 nM | > 10 µM |
| O=C(N[C@H]1CCC[C@@H]1Nc1cnc(C(F)(F)F)cn1)c1ncccc1C1CC1 [Example 63, 3-Cyclopropyl-N-[(1S,2S)-2-{[5-(trifluoromethyl)pyrazin-2-yl]amino}cyclopentyl]pyridine-2-carboxamide] | 450 nM | > 10 µM |
| O=C(N[C@H]1CCC[C@@H]1Nc1ncc(C(F)(F)F)cn1)c1ccccc1-n1nccn1 [Example 18, 2-(2H-1,2,3-Triazol-2-yl)-N-[(1S,2S)-2-{[5-(trifluoromethyl)pyrimidin-2-yl]amino}cyclopentyl]benzamide] | 57 nM | > 10 µM |
| O=C(N[C@H]1CCC[C@@H]1Nc1ncc(C(F)(F)F)cc1F)c1ncccc1-c1ncccn1 [Example 147, N-[(1S,2S)-2-{[3-Fluoro-5-(trifluoromethyl)pyridin-2-yl]amino}cyclopentyl]-3-(pyrimidin-2-yl)pyridine-2-carboxamide] | 24 nM | > 10 µM |
| O=C(N[C@H]1CC(F)(F)C[C@@H]1Nc1ccc(OC(F)(F)F)cn1)c1ccccc1-n1nccn1 [Example 131, N-[(1S,2S)-4,4-Difluoro-2-{[5-(trifluoromethoxy)pyridin-2-yl]amino}cyclopentyl]-2-(2H-1,2,3-triazol-2-yl)benzamide] | 39 nM | > 10 µM |
| Cc1ccc(-n2nccn2)c(C(=O)N[C@H]2CCC[C@@H]2Nc2ccc(C(F)(F)F)cn2)c1 [Example 6, 5-Methyl-2-(2H-1,2,3-triazol-2-yl)-N-[(1S,2S)-2-{[5-(trifluoromethyl)pyridin-2-yl]amino}cyclopentyl]benzamide] | 51 nM | > 10 µM |
| O=C(N[C@H]1CCC[C@@H]1Nc1cnc(C(F)(F)F)cn1)c1cc(C(F)(F)F)ccc1-n1ccnn1 [Example 54, 2-(1H-1,2,3-Triazol-1-yl)-5-(trifluoromethyl)-N-[(1S,2S)-2-{[5-(trifluoromethyl)pyrazin-2-yl]amino}cyclopentyl]benzamide] | 950 nM | > 10 µM |
| O=C(N[C@H]1CCC[C@@H]1Nc1cnc(C(F)(F)F)cn1)c1ncccc1Br [Example 28, 3-Bromo-N-[(1S,2S)-2-{[5-(trifluoromethyl)pyrazin-2-yl]amino}cyclopentyl]pyridine-2-carboxamide] | 776 nM | > 10 µM |
